Assay results: patent publication US20020028836A1, “Potassium channel openers” (priority 2000, published 2002)
pEC50: −log10 of the molar value.

Experiments:
[1] = system: primary cultured guinea-pig urinary bladder (GPB) cells; experiment: Membrane hyperpolarization (MHP) assay, DiBAC(4)3 / FLIPR; assay type: cell-based; details: Cavia porcellus; for pEC50: concentration that elicits 50% of the maximal response for the test sample; for Emax: maximal steady-state hyperpolarization, normalized to response with 10 μM P1075 (100%)
Summary of the method: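 Primary smooth-muscle cells from male guinea-pig bladder, grown to confluence, loaded 30 min at 37° C with 5 μM DiBAC(4)3 in HEPES buffer pH 7.4. Fluorescence drop on FLIPR followed 25 min after compound; steady-state hyperpolarization normalized to 10 μM P1075 (100%), EC50 from four-parameter fit of five concentrations.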

melting point	pEC50 [1]	Compound	Emax [1]
190 to 192 °C	6.48	N#CN=C(Nc1cccnc1)NC(NC(=O)c1ccc(Cl)cc1)C1CCCCC1 (stereo not shown) [Example 61, 4-chloro-N-[{[(cyanoimino)(3-pyridinylamino)methyl]amino}(cyclohexyl)methyl]benzamide]	36%
212 to 214 °C	≤ 5.00	COc1ccccc1NC(=S)NC(NC(=O)c1ccc(C)cc1)C(F)(F)F (stereo not shown) [Example 8, 4-methyl-N-(2,2,2-trifluoro-1-{[(2-methoxyanilino)carbothioyl]amino}ethyl)benzamide]	10%
186 to 188 °C	6.70	Cc1ccc(C(=O)NC(NC(=NC#N)Nc2cncnc2)C(Cl)(Cl)Cl)cc1 (stereo not shown) [Example 48, 4-methyl-N-(2,2,2-trichloro-1-{[(cyanoimino)(5-pyrimidinylamino)methyl]amino}ethyl)benzamide]	96%
148 to 155 °C	6.00	Cc1ccc(C(=O)NC(CF)NC(=S)Nc2cccc([N+](=O)[O-])c2)cc1 (stereo not shown) [Example 32, N-(2-fluoro-1-{[(3-nitroanilino)carbothioyl]amino}ethyl)-4-methylbenzamide]	15%
184 to 186 °C	4.88	Cc1ccc(C(=O)NC(NC(=S)Nc2cccnc2)C(C)C)cc1 (stereo not shown) [Example 35, 4-methyl-N-(2-methyl-1-{[(3-pyridinylamino)carbothioyl]amino}propyl)benzamide]	40%
182 to 184 °C	6.34	Cc1ccccc1C(=O)NC(NC(=O)Nc1cccnc1)C(Cl)(Cl)Cl (stereo not shown) [Example 39, 2-methyl-N-(2,2,2-trichloro-1-{[(3-pyridinylamino)carbonyl]amino}ethyl)benzamide]	101%
192 to 193 °C	6.37	CCC(CC)C(NC(=O)c1ccc(Cl)cc1)NC(=C[N+](=O)[O-])Nc1cccnc1 (stereo not shown) [Example 68, 4-chloro-N-(2-ethyl-1-{[2-nitro-1-(3-pyridinylamino)ethenyl]amino}butyl)benzamide]	99%
184 to 186 °C	6.11	Cc1ccc(C(=O)NC(N2CCN(c3cccc(F)c3)C2=S)C(Cl)(Cl)Cl)cc1 (stereo not shown) [Example 37, 4-methyl-N-{2,2,2-trichloro-1-[3-(3-fluorophenyl)-2-thioxo-1-imidazolidinyl]ethyl}benzamide]	85%
104 to 105 °C	5.46	CSCCC(NC(=O)c1ccc(Cl)cc1)NC(=NC#N)Nc1cccnc1 (stereo not shown) [Example 99, 4-chloro-N-[1-{[(cyanoimino)(3-pyridinylamino)methyl]amino}-3-(methylsulfanyl)propyl]benzamide]	84%
219 to 220 °C	5.70	O=C(NC(CC12CC3CC(CC(C3)C1)C2)NC(=N[N+](=O)[O-])Nc1cccnc1)c1ccc(Cl)cc1 (stereo not shown) [Example 134, N-(2-(1-adamantyl)-1-{[(nitroimino)(3-pyridinylamino)methyl]amino}ethyl)-4-chlorobenzamide]	86%
175 to 180 °C	5.70	C=CCOCC(CC)(COCC=C)C(NC(=O)c1ccc(Cl)cc1)NC(=N[N+](=O)[O-])Nc1cccnc1 (stereo not shown) [Example 131, N-(2,2-bis[(allyloxy)methyl]-1-{[(nitroimino)(3-pyridinylamino)methyl]amino}butyl)-4-chlorobenzamide]	53%
170 to 171 °C	5.49	Cc1ccc(C(=O)NC(Cc2ccccc2)NC(=S)Nc2cccc([N+](=O)[O-])c2)cc1 (stereo not shown) [Example 30, 4-methyl-N-(1-{[(3-nitroanilino)carbothioyl]amino}-2-phenylethyl)benzamide]	22%
205 to 207 °C	6.33	CC(C)(Cc1ccccc1)C(NC(=O)c1ccc(Cl)cc1)NC(=N[N+](=O)[O-])Nc1cccnc1 (stereo not shown) [Example 128, 4-chloro-N-(1-{[(nitroimino)(3-pyridinylamino)methyl]amino}-2,2-dimethyl-3-phenylpropyl)benzamide]	116%
194 to 195 °C	5.21	CCC1(C(NC(=O)c2ccc(Cl)cc2)NC(=NC#N)Nc2cccnc2)COCOC1 (stereo not shown) [Example 101, 4-chloro-N-[{[(cyanoimino)(3-pyridinylamino)methyl]amino}(5-ethyl-1,3-dioxan-5-yl)methyl]benzamide]	59%
100 to 110 °C	6.89	CCC(CC)(CCC#N)C(NC(=O)c1ccc(Cl)cc1)NC(=N[N+](=O)[O-])Nc1cccnc1 (stereo not shown) [Example 132, 4-chloro-N-(4-cyano-1-{[(nitroimino)(3-pyridinylamino)methyl]amino}-2,2-diethylbutyl)benzamide]	124%
257 to 259 °C	5.92	Cc1ccc(C(=O)NC(NC(=O)Nc2ccccc2F)C(Cl)(Cl)Cl)cc1 (stereo not shown) [Example 43, 4-methyl-N-(2,2,2-trichloro-1-{[(2-fluoroanilino)carbonyl]amino}ethyl)benzamide]	80%

melting point	pEC50 [1]	Compound	Emax [1]
158 to 160 °C		CC(C)(C)C(NC(=O)c1ccc(Cl)cc1)NC(=NC#N)Nc1cccc(Cl)c1 (stereo not shown) [Example 75, 4-chloro-N-(1-{[(cyanoimino)(3-chloroanilino)methyl]amino}-2,2-dimethylpropyl)benzamide]	
213 to 214 °C		CC(C)(C)C(NC(=O)c1ccc(Cl)cc1)NC(Nc1cccnc1)=C(C#N)C#N (stereo not shown) [Example 152, 4-chloro-N-(1-{[2,2-dicyano-1-(3-pyridinylamino)vinyl]amino}-2,2-dimethylpropyl)benzamide]	
187 to 189 °C		COc1cc(OC)cc(C(=O)NC(NC(=NC#N)Nc2ccc(C(F)(F)F)nc2)C(C)(Cl)Cl)c1 (stereo not shown) [Example 183, N-{2,2-dichloro-1-[((cyanoimino){[6-(trifluoromethyl)-3-pyridinyl]amino}methyl)amino]propyl}-3,5-dimethoxybenzamide]	
196 to 198 °C		CC(C)(C)C(NC(=O)c1ccc(Cl)cc1)NC(=NC#N)Nc1cc(F)cc(F)c1 (stereo not shown) [Example 72, 4-chloro-N-(1-{[(cyanoimino)(3,5-difluoroanilino)methyl]amino}-2,2-dimethylpropyl)benzamide]	
212 to 213 °C		CC(Cl)(Cl)C(NC(=O)c1cccnc1)NC(=NC#N)Nc1ccc(Cl)nc1 (stereo not shown) [Example 193, N-(2,2-dichloro-1-{[[(6-chloro-3-pyridinyl)amino](cyanoimino)methyl]amino}propyl)nicotinamide]	
178 to 180 °C		CC(C)(C)C(NC(=O)c1ccc(Cl)cc1)NC(=NC#N)NCc1cccc(Cl)c1 (stereo not shown) [Example 78, 4-chloro-N-(1-{[[(3-chlorobenzyl)amino](cyanoimino)methyl]amino}-2,2-dimethylpropyl)benzamide]	
208 to 209 °C		CC(C)(C)C(NC(=O)c1ccc(Cl)cc1)NC(=NC#N)Nc1ccccc1F (stereo not shown) [Example 69, 4-chloro-N-(1-{[(cyanoimino)(2-fluoroanilino)methyl]amino}-2,2-dimethylpropyl)benzamide]	
198 to 200 °C		CCCC(Cl)(Cl)C(NC(=O)c1ccc(Cl)cc1)NC(=N[N+](=O)[O-])Nc1cccnc1 (stereo not shown) [Example 136, 4-chloro-N-(2,2-dichloro-1-{[(nitroimino)(3-pyridinylamino)methyl]amino}pentyl)benzamide]	
127 to 129 °C		CN(C(=NC#N)Nc1cccnc1)C(NC(=O)c1ccc(Cl)cc1)C(C)(C)C (stereo not shown) [Example 111, 4-chloro-N-{1-[[(cyanoimino)(3-pyridinylamino)methyl](methyl)amino]-2,2-dimethylpropyl}benzamide]	
192 to 193 °C		CCCC(Cl)(Cl)C(NC(=O)c1ccc(Cl)cc1)NC(=NC#N)Nc1cccnc1 (stereo not shown) [Example 115, 4-chloro-N-(2,2-dichloro-1-{[(cyanoimino)(3-pyridinylamino)methyl]amino}pentyl)benzamide]	
213 to 215 °C		CC(Cl)(Cl)C(NC(=O)c1cc(Cl)cc(Cl)c1)NC(=NS(=O)(=O)C(F)(F)F)Nc1cccnc1 (stereo not shown) [Example 190, 3,5-dichloro-N-{2,2-dichloro-1-[((3-pyridinylamino){[(trifluoromethyl)sulfonyl]imino}methyl)amino]propyl}benzamide]	
125 to 126 °C		COc1ncccc1NC(=NC#N)NC(NC(=O)c1cc(F)cc(F)c1)C(C)(Cl)Cl (stereo not shown) [Example 157, N-[2,2-dichloro-1-({(cyanoimino)[(2-methoxy-3-pyridinyl)amino]methyl}amino)propyl]-3,5-difluorobenzamide]	
180 to 182 °C		CC(C)(C)C(NC(=O)c1ccc(Cl)cc1)NC(=NC#N)NCc1ccccc1Cl (stereo not shown) [Example 77, 4-chloro-N-(1-{[[(2-chlorobenzyl)amino](cyanoimino)methyl]amino}-2,2-dimethylpropyl)benzamide]	
173 to 175 °C		COc1cccc(NC(=NC#N)NC(NC(=O)c2ccc(Cl)cc2)C(C)(C)C)c1 (stereo not shown) [Example 76, 4-chloro-N-(1-{[(cyanoimino)(3-methoxyanilino)methyl]amino}-2,2-dimethylpropyl)benzamide]	
149 to 150 °C		COc1ncccc1NC(=NC#N)NC(NC(=O)c1cc(Cl)cc(Cl)c1)C(C)(Cl)Cl (stereo not shown) [Example 164, 3,5-dichloro-N-[2,2-dichloro-1-({(cyanoimino)[(2-methoxy-3-pyridinyl)amino]methyl}amino)propyl]benzamide]	

Compound	melting point	pEC50 [1]	Emax [1]
Cc1ccc(C(=O)N[C@@H](COC(C)(C)C)NC(=S)Nc2cccc([N+](=O)[O-])c2)cc1 [Example 31, N-((1R)-2-(tert-butoxy)-1-{[(3-nitroanilino)carbothioyl]amino}ethyl)-4-methylbenzamide]	169 to 171 °C		
